Paper PMC6424904, “The Utility of Efavirenz-based Prophylaxis Against HIV Infection. A Systems Pharmacological Analysis” (Frontiers in Pharmacology, 2019)
Read-outs that look alike come from different tables or passages of the source.

Assays:
HIV G190S mutant = test system: HIV G190S mutant; design: method as in Sampah et al., 2011; conditions: ref Sampah et al., 2011; cited from earlier work
wild-type HIV = test system: wild-type HIV; design: method as in Shen et al., 2008; conditions: ref Shen et al., 2008, cited from earlier work
[1] = human, in vivo
Excerpt: In our work, we modeled metabolic autoinduction similarly to the model proposed by Zhu et al. ([2009]). We defined the term α as the ratio of the mean clearance on day 1 to the mean clearance at steady state (after autoinduction). […] For each virtual patient generated from the population pharmacokinetic model, the individual clearance at steady state was available and the clearance at day 1 was computed using CLi,t0 = α·CLi, SS. Zhu et al. ([2009]) proposed a model for time-dependent autoinduction that we used herein
(4) CLi(t)=CLi,t0+(CLi,SS-CLi,t0)·t-t0/(t-t0)+T50
where CLi(t) is the individual clearance rate at the time t and t0 is the time of the first EFV dose. CLi(0) and CLi, SS represent the clearance rates at day 1 and at steady state.

[2] = cited from earlier work; for typical population clearance value: 70kg; for typical population clearance value / relative change in apparent oral clearance vs reference genotype: ref Dickinson et al. (2015)
[3] = design: method as in Mukonzo et al., 2009; conditions: healthy men, ref Mukonzo et al., 2009, cited from earlier work
[4] = test system: plasma proteins (human serum albumin and α-1-acid glycoprotein); conditions: cited from earlier work; for unbound fraction in human plasma (fu): ref Almond et al., 2005, Fayet et al., 2008, Burhenne et al., 2010, Avery et al., 2011, 2013a
[5] = in vivo; cited from earlier work
[6] = no reference given; cited from earlier work
HIV K103N mutant = test system: HIV K103N mutant; design: method as in Sampah et al., 2011; conditions: ref Sampah et al., 2011; cited from earlier work
[7] = cited from earlier work
[8] = in vivo; cited from earlier work; remark: listed apart in the source
HIV Y181C mutant = test system: HIV Y181C mutant; design: method as in Sampah et al., 2011; conditions: ref Sampah et al., 2011; cited from earlier work
[9] = genotype GG/TC or CC/CA or AA/CC
[10] = genotype GG/TC or CC/CA or AA/CT
[11] = genotype GG/TC or CC/CC/CT or TT
[12] = genotype GT/TC or CC/CA or AA/CC
[13] = genotype GT/TC or CC/CC/CT or TT

SMILES: O=C1Nc2ccc(Cl)cc2[C@@](C#CC2CC2)(C(F)(F)F)O1 [efavirenz]
- hill coefficient m as multiple of m(wt) (HIV G190S mutant): 0.6·m(wt)
- IC50 (wild-type HIV; corrected for protein binding): 5.4 nM
- hill coefficient m (± sd) (wild-type HIV): 1.69 (±0.08)
- α, ratio of mean clearance on day 1 to mean clearance at steady state [1]: 0.58
- typical population clearance value ([2]; Missing genotype): 8.7 L/h
- typical population clearance value [2, 9]: 9.0 L/h
- typical population clearance value [2, 10]: 11.4 L/h
- typical population clearance value ([2]; genotype GG/TC or CC/CC/CC): 8.7 L/h
- typical population clearance value [2, 11]: 3.5 L/h
- typical population clearance value [2, 12]: 2.2 L/h
- typical population clearance value ([2]; genotype GT/TC or CC/CC/CC): 5.0 L/h
- typical population clearance value [2, 13]: 4.6 L/h
- typical population clearance value ([2]; genotype GT/TT/CA or AA/CC): 8.2 L/h
- typical population clearance value ([2]; genotype GT/TT/CA or AA/CT): 8.4 L/h
- typical population clearance value ([2]; genotype GT/TT/CC/CC): 8.9 L/h
- typical population clearance value ([2]; genotype GT/TT/CC/CT or TT): 8.1 L/h
- typical population clearance value ([2]; genotype TT/TT/CA or AA/CC): 5.2 L/h
- typical population clearance value ([2]; genotype TT/TT/CA or AA/CT): 8.9 L/h
- typical population clearance value ([2]; genotype TT/TT/CC/CC): 4.0 L/h
- typical population clearance value ([2]; genotype TT/TT/CC/CT or TT): 4.1 L/h
- relative change in apparent oral clearance vs reference genotype ([2]; Missing genotype): 0.73
- relative change in apparent oral clearance vs reference genotype [2, 9]: 0.75
- relative change in apparent oral clearance vs reference genotype [2, 10]: 0.96
- relative change in apparent oral clearance vs reference genotype ([2]; genotype GG/TC or CC/CC/CC): 0.73
- relative change in apparent oral clearance vs reference genotype [2, 11]: 0.30
- relative change in apparent oral clearance vs reference genotype [2, 12]: 0.18
- relative change in apparent oral clearance vs reference genotype ([2]; genotype GT/TC or CC/CC/CC): 0.42
- relative change in apparent oral clearance vs reference genotype [2, 13]: 0.39
- relative change in apparent oral clearance vs reference genotype ([2]; genotype GT/TT/CA or AA/CC): 0.69
- relative change in apparent oral clearance vs reference genotype ([2]; genotype GT/TT/CA or AA/CT): 0.71
- relative change in apparent oral clearance vs reference genotype ([2]; genotype GT/TT/CC/CC): 0.75
- relative change in apparent oral clearance vs reference genotype ([2]; genotype GT/TT/CC/CT or TT): 0.68
- relative change in apparent oral clearance vs reference genotype ([2]; genotype TT/TT/CA or AA/CC): 0.44
- relative change in apparent oral clearance vs reference genotype ([2]; genotype TT/TT/CA or AA/CT): 0.75
- relative change in apparent oral clearance vs reference genotype ([2]; genotype TT/TT/CC/CC): 0.33
- relative change in apparent oral clearance vs reference genotype ([2]; genotype TT/TT/CC/CT or TT): 0.34
- absorption rate constant ka ([2]; in vivo): 0.6 h⁻¹
- interindividual variability CVIIV(CLss/Fbio) ([2]; in vivo): 36.6%
- interoccasion variability CVIOV(CLss/Fbio) ([2]; in vivo): 21.0%
- apparent volume of distribution V/Fbio ([2]; population mean, 70 kg individual, ref Dickinson et al., 2015): 282 L
- apparent oral clearance CL/Fbio (CLss/Fbio) ([2]; population value, 70 kg individual, reference (wild-type) CYP genotype, after autoinduction, ref Dickinson et al., 2015): 11.9 L/h
- half life ([3]; slow metabolisers): 54.7 h
- half life ([3]; wild type): 37.3 h
- unbound fraction in human plasma (fu) [4]: ≤ 1%
- unbound fraction in human plasma (fu) ([4]; listed as EFV): < 1%
- fu,plasma used for IC50 correction ([4]; value used to obtain IC50plasma): 0.2%
- semen-to-plasma ratio of total EFV concentrations [5]: 3.4–5%
- LogP [6]: ≈ 4
- hill coefficient m as multiple of m(wt) (HIV K103N mutant): 0.83·m(wt)
- T50, time where the clearance rate reaches half of its steady-state value ([7]; in vivo): 245 h
- average clearance on the first day ([7]; ref Zhu et al., 2009): 5.76 L/h
- cervical fluid-to-plasma ratio of total concentrations [8]: 0.4%
- hill coefficient m as multiple of m(wt) (HIV Y181C mutant): 0.9·m(wt)
